Reference: EP3723746B1, “PHENOXY ACIDS FOR THE TREATMENT OF NEUROMUSCULAR DISORDERS” (NMD Pharma A/S, priority 2017, dated 2019)

Molecular target: T1, CIC-1 channels (Rattus norvegicus, UniProt P35524)
T1 construct: from tissue; host or cells: whole soleus muscle of 12-14 week old Wistar rats
T1 sequence (P35524 1-994): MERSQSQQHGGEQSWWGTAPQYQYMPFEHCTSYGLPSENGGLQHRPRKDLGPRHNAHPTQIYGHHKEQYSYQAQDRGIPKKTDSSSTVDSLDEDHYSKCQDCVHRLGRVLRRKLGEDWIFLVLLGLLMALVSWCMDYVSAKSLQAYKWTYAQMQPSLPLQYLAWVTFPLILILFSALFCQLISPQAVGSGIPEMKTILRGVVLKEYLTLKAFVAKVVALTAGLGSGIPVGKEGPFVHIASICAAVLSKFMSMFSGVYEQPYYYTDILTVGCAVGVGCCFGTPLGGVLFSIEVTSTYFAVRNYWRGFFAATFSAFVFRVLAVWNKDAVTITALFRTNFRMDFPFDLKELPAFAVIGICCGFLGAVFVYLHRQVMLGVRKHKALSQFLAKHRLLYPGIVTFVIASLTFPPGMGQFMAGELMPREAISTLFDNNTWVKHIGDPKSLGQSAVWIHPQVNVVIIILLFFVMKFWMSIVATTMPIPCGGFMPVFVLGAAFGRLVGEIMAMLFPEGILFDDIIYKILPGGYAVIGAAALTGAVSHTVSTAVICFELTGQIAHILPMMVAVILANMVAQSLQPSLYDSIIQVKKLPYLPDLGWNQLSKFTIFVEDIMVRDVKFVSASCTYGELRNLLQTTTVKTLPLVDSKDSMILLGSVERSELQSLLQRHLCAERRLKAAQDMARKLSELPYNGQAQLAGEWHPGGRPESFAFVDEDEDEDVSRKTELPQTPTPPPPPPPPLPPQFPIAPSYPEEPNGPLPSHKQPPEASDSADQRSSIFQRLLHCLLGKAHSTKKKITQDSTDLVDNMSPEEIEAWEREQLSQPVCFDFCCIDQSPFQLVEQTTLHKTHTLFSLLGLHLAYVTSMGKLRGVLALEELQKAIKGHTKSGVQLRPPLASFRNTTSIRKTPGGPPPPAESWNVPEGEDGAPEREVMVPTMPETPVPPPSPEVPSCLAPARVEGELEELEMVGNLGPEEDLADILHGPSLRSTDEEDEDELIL
Experiment: Electrophysiological measurement of compound inhibition of CIC-1 in rat muscle (Gm, three micro-electrode technique, soleus muscle fibres)
Assay type: cell-based
Conditions: reduction of Gm in rat soleus muscle fibres, approx. 30°C; mean ± spread, n = number of experiments
Text: Table 2: Inhibition of CIC-1 ion channel using compounds of the invention

EC50: 3.5 ± 0.6 µM
Compound: C#Cc1cc(Br)ccc1O[C@@H](C)C(=O)O [Compound A-19, (2S)-2-(4-bromo-2-ethynylphenoxy)propanoic acid]
